In US5747466A, “3-deoxy-3-descladinose derivatives of erythromycins A and B” (Abbott Laboratories, priority 1996, dated 1998):
Read-outs that look alike come from different tables or passages of the source.

Key:
Experiment in all cases: In vitro antibacterial activity (MIC), agar dilution
[1] = tested on: STAPHYLOCOCCUS AUREUS NCTC10649M; format: cell-based; settings: S. aureus NCTC10649M; BHI agar, 35-37 °C, 20-24 h
[2] = tested on: STAPHYLOCOCCUS AUREUS CMX 553; format: cell-based; settings: S. aureus CMX 553; BHI agar, 35-37 °C, 20-24 h
EN[…] ATCC 8043 = format: cell-based, Enterococcus faecium; settings: E. faecium ATCC 8043; BHI agar, 35-37 °C, 20-24 h
Description: Representative compounds of the present invention were assayed in vitro for antibacterial activity as follows: Twelve petri dishes containing successive aqueous dilutions of the test compound mixed with 10 mL of sterilized Brain Heart Infusion (BHI) agar (Difco 0418-01-5) were prepared. Each plate was inoculated with 1:100 (or 1:10 for slow-growing strains, such as Micrococcus and Streptococcus) dilutions of up to 32 different microorganisms, using a Steers replicator block. The inoculated plates were incubated at 35°-37° C. for 20 to 24 hours. In addition, a control plate, using BHI agar containing no test compound, was prepared and incubated at the beginning and end of each test.
An additional plate containing a compound having known susceptibility patterns for the organisms being tested and belonging to the same antibiotic class as the test compound was also prepared and incubated as a further control, as well as to provide test-to-test comparability. Erythromycin A was used for this purpose.
After incubation, each plate was examined. The minimum inhibitory concentration (MIC) was defined as the lowest concentration of drug yielding no growth, a slight haze, or sparsely isolated colonies on the inoculum spot as compared to the growth control.

[3] = tested on: STREPTOCOCCUS PYOGENES EES61; format: cell-based; settings: S. pyogenes EES61; BHI agar, 35-37 °C, 20-24 h
ESCHERICHIA COLI H560 = format: cell-based; settings: E. coli H560; BHI agar, 35-37 °C, 20-24 h
ESCHERICHIA COLI KNK 437 = format: cell-based
[4] = tested on: KLEBSIELLA PNEUMONIAE ATCC 8045; format: cell-based; settings: K. pneumoniae ATCC 8045; BHI agar, 35-37 °C, 20-24 h
[5] = tested on: PSEUDOMONAS AERUGINOSA K799/61; format: cell-based; settings: P. aeruginosa K799/61; BHI agar, 35-37 °C, 20-24 h
[6] = tested on: PSEUDOMONAS AERUGINOSA DPHD-2862; format: cell-based; settings: P. aeruginosa DPHD-2862; BHI agar, 35-37 °C, 20-24 h
[7] = E. coli KNK 437, BHI agar, 35-37 °C, 20-24 h

SMILES | minimum inhibitory concentration (MIC) [1] | minimum inhibitory concentration (MIC) [2] | minimum inhibitory concentration (MIC) (EN[…] ATCC 8043) | minimum inhibitory concentration (MIC) [3] | minimum inhibitory concentration (MIC) (ESCHERICHIA COLI H560) | minimum inhibitory concentration (MIC) (ESCHERICHIA COLI KNK 437) | minimum inhibitory concentration (MIC) [4] | minimum inhibitory concentration (MIC) [5] | minimum inhibitory concentration (MIC) [6] | minimum inhibitory concentration (MIC) (ESCHERICHIA COLI KNK 437; [7])
CC[C@H]1OC(=O)[C@H](C)[C@@H](O[C@H]2C[C@@](C)(OC)[C@@H](O)[C@H](C)O2)[C@H](C)[C@@H](O[C@@H]2O[C@H](C)C[C@H](N(C)C)[C@H]2O)[C@](C)(O)C[C@@H](C)C(=O)[C@H](C)[C@@H](O)[C@]1(C)O [Ery A, Erythromycin A, reference compound] | 0.2 | 0.2 | 0.05 | 0.02 | 25 | 100 | 25 | 1.56 | 100 | –
CC[C@H]1OC(=O)[C@H](C)C[C@H](C)[C@@H](O[C@@H]2O[C@H](C)C[C@H](N(C)C)[C@H]2O)[C@](C)(OC)C[C@@H](C)C(=O)[C@H](C)[C@@H](O)[C@]1(C)O [Ex. 1] | 6.2 | 25 | 25 | 1.56 | > 100 | – | > 100 | > 100 | > 100 | > 100
CC[C@H]1OC(=O)[C@H](C)C[C@H](C)[C@@H](O[C@@H]2O[C@H](C)C[C@H](N(C)C)[C@H]2O)[C@](C)(OC)C[C@@H](C)C(=NO)[C@H](C)[C@@H](O)[C@]1(C)O [Ex. 2] | 12.5 | 12.5 | 3.1 | 0.78 | > 100 | – | > 100 | > 100 | > 100 | > 100
CC[C@H]1OC(=O)[C@H](C)C[C@H](C)[C@@H](O[C@@H]2O[C@H](C)C[C@H](N(C)C)[C@H]2O)[C@](C)(OC)C[C@@H](C)C(=O)[C@H](C)[C@H]2OC(=O)O[C@@]21C [Ex. 3] | 6.2 | 3.1 | 0.78 | 0.2 | > 100 | – | > 100 | > 100 | > 100 | > 100
CC[C@H]1OC(=O)[C@H](C)C[C@H](C)[C@@H](O[C@@H]2O[C@H](C)C[C@H](N(C)C)[C@H]2O)[C@](C)(OC)C[C@@H](C)C(=O)[C@H](C)[C@H]2N(CCCCc3ccccc3)C(=O)O[C@]12C [Ex. 4] | 1.56 | 1.56 | 0.39 | 0.05 | 25 | – | > 100 | 12.5 | > 100 | > 100
CC[C@H]1OC(=O)[C@H](C)C[C@H](C)[C@@H](O[C@@H]2O[C@H](C)C[C@H](N(C)C)[C@H]2O)[C@](C)(OC)C[C@@H](C)C(=O)[C@H](C)[C@H]2N(CCc3ccc(Oc4ccccc4)cc3)C(=O)O[C@]12C [Ex. 5] | 6.2 | 6.2 | 1.56 | 1.56 | > 100 | – | > 100 | > 100 | > 100 | > 100
CC[C@H]1OC(=O)[C@H](C)C[C@H](C)[C@@H](O[C@@H]2O[C@H](C)C[C@H](N(C)C)[C@H]2O)[C@](C)(OC)C[C@@H](C)C(=NOC)[C@H](C)[C@@H](O)[C@]1(C)O [Ex. 6] | 6.2 | 6.2 | 0.78 | 0.39 | 50 | – | > 100 | > 100 | > 100 | 25
CC[C@H]1OC(=O)[C@H](C)C[C@H](C)[C@@H](O[C@@H]2O[C@H](C)C[C@H](N(C)C)[C@H]2O)[C@](C)(OC)C[C@@H](C)C(=NOCOCCOC)[C@H](C)[C@@H](O)[C@]1(C)O [Ex. 8] | 0.2 | 0.2 | 0.05 | 0.02 | 25 | – | 25 | 1.56 | 100 | 100
